# From US11708562B2, “Differentiation of human embryonic stem cells” (Janssen Biotech, Inc., priority 2006, dated 2023)
# Test system: H9P33, H9P44 and H9P48 cells
# Test: Microarray analysis of definitive endoderm on MEFs vs MATRIGEL +/- Wnt-3A (Table VI)
# Details: log format
# Procedure: Controls for each group included cells plated on […]-coated dishes and cultured in MEF-conditioned medium or cells plated on MEFs and cultured in ES medium. All groups contained three biological replicates and each biological replicate was repeated on two separate gene chips.
# Sample preparation, hybridization, and image analysis were performed according to the Affymetrix Human Genome U133 Plus 2.0 Array. Following normalization and a log transformation, data analysis was performed using OmniViz® software (MA) and […] (VizXLabs, WA). Significant differences in gene expression between the samples were evaluated using analysis of variance and an F-test with adjusted P-value (Benjamini and Hochberg correction) of ≤0.05. Only genes with a present call in at least one group were included in the analysis.
# [1] = DE treatment in low serum + AA on MATRIGEL
# [2] = DE treatment in low serum + AA on MEFS
substance,measurement,setting,value
Activin A: a member of the TGFβ superfamily; growth factor (R&D Systems) used to differentiate human embryonic stem cells,"mean normalized intensity: Homo sapiens chorionic somatomammotropin hormone 2 (CSH2), transcript variant 1, mRNA.",[1],1.124
same,"mean normalized intensity: Homo sapiens chorionic somatomammotropin hormone 2 (CSH2), transcript variant 4, mRNA.",[1],0.8122
same,"mean normalized intensity: Homo sapiens galanin receptor 1 (GALR1), mRNA.",[1],2.507
same,"mean normalized intensity: Homo sapiens growth hormone 2 (GH2), transcript variant 2, mRNA.",[1],0.9226
same,"mean normalized intensity: Homo sapiens hypothetical protein FLJ20075 (FLJ20075), mRNA.",[1],−0.3592
same,"mean normalized intensity: Homo sapiens mRNA for SCCA2b, complete cds.",[1],3.329
same,mean normalized intensity: Homo sapiens mRNA; cDNA DKFZp586P1124 (from clone DKFZp586P1124),[1],0.4856
same,"mean normalized intensity: Homo sapiens methyl-CpG binding protein MBD2 (MBD2) mRNA, complete cds.",[1],0.4906
same,"mean normalized intensity: Homo sapiens tachykinin, precursor 1 (TAC1), transcript variant beta, mRNA.",[1],2.773
same,"mean normalized intensity: Homo sapiens testis expressed sequence 14 (TEX14), mRNA.",[1],3.512
same,"mean normalized intensity: Homo sapiens, Similar to LIM homeobox protein 8, clone IMAGE: 4839343, mRNA.",[1],−0.06288
same,"mean normalized intensity: Homo sapiens, Similar to cadherin 6, type 2, K-cadherin (fetal kidney), clone MGC: 1470, mRNA, complete cds.",[1],2.547
same,"mean normalized intensity: Homo sapiens, Similar to hypothetical protein FLJ10058, clone MGC: 34305 IMAGE: 5167647, mRNA, complete cds.",[1],1.698
same,"mean normalized intensity: Homo sapiens, Similar to hypothetical protein FLJ32001, clone MGC: 39559 IMAGE: 4828136, mRNA, complete cds.",[1],0.5207
same,"mean normalized intensity: Homo sapiens, clone IMAGE: 4067166, mRNA",[1],0.1959
same,"mean normalized intensity: Homo sapiens, clone IMAGE: 4828836, mRNA.",[1],0.9729
same,"mean normalized intensity: Homo sapiens, serine (or cysteine) proteinase inhibitor, clade B (ovalbumin), member 3, clone MGC: 12244, mRNA, complete cds.",[1],1.969
same,mean normalized intensity: Human mRNA upregulated during camptothecin-induced apoptosis of U937 cells.,[1],0.4945
same,"mean normalized intensity: Human platelet-derived growth factor alpha-receptor (PDGFRA) mRNA, exons 13-16",[1],2.445
same,mean normalized intensity: KIAA1151 protein,[1],0.6425
same,mean normalized intensity: caldesmon 1,[1],7.092
same,"mean normalized intensity: nuclear receptor subfamily 1, group I, member 3",[1],1.779
same,mean normalized intensity: ESTs,"DE treatment in low serum + AA on MATRIGEL, gene line r2006",1.5857
same,mean normalized intensity: ESTs,"DE treatment in low serum + AA on MATRIGEL, gene line r2025",1.531
same,mean normalized intensity: ESTs,"DE treatment in low serum + AA on MATRIGEL, gene line r2032",0.1336
same,mean normalized intensity: paternally expressed 3,"DE treatment in low serum + AA on MATRIGEL, gene line r2033",2.876
same,mean normalized intensity: ESTs,"DE treatment in low serum + AA on MATRIGEL, gene line r2038",3.262
same,mean normalized intensity: paternally expressed 3,"DE treatment in low serum + AA on MATRIGEL, gene line r2093",2.874
same,mean normalized intensity: ESTs,"DE treatment in low serum + AA on MATRIGEL, gene line r2134",−1.3795
same,mean normalized intensity: ESTs,"DE treatment in low serum + AA on MATRIGEL, gene line r2148",4.454
same,mean normalized intensity: DKFZP566K1924 protein,[2],1.391
same,mean normalized intensity: H. sapiens mRNA for B-HLH DNA binding protein.,[2],3.451
same,"mean normalized intensity: Homo sapiens BCL2-interacting killer (apoptosis-inducing) (BIK), mRNA.",[2],3.562
same,"mean normalized intensity: Homo sapiens Charot-Leyden crystal protein (CLC), mRNA.",[2],2.1096
same,"mean normalized intensity: Homo sapiens HES-related repressor protein 1 HERP1 mRNA, complete cds.",[2],2.406
same,"mean normalized intensity: Homo sapiens HSPC156 protein (HSPC156), mRNA.",[2],1.296
same,"mean normalized intensity: Homo sapiens KIAA0469 gene product (KIAA0469), mRNA.",[2],2.565
same,"mean normalized intensity: Homo sapiens PNAS-123 mRNA, complete cds",[2],1.847
same,"mean normalized intensity: Homo sapiens Wilms tumor 1 (WT1), transcript variant D, mRNA.",[2],−2.435
same,"mean normalized intensity: Homo sapiens cDNA FLJ11398 fis, clone HEMBA1000637.",[2],1.849
same,"mean normalized intensity: Homo sapiens cDNA: FLJ22547 fis, clone HSI00356",[2],2.095
same,"mean normalized intensity: Homo sapiens cadherin 6, type 2, K-cadherin (fetal kidney) (CDH6), mRNA.",[2],−0.8763
same,"mean normalized intensity: Homo sapiens chorionic somatomammotropin hormone 2 (CSH2), transcript variant 1, mRNA.",[2],2.616
same,"mean normalized intensity: Homo sapiens chorionic somatomammotropin hormone 2 (CSH2), transcript variant 4, mRNA.",[2],2.218
same,"mean normalized intensity: Homo sapiens galanin receptor 1 (GALR1), mRNA.",[2],−0.338
same,"mean normalized intensity: Homo sapiens growth hormone 2 (GH2), transcript variant 2, mRNA.",[2],1.4679
same,"mean normalized intensity: Homo sapiens hypothetical protein FLJ20075 (FLJ20075), mRNA.",[2],−0.06528
same,"mean normalized intensity: Homo sapiens mRNA for SCCA2b, complete cds.",[2],0.568
same,mean normalized intensity: Homo sapiens mRNA; cDNA DKFZp586P1124 (from clone DKFZp586P1124),[2],−3.094
same,"mean normalized intensity: Homo sapiens methyl-CpG binding protein MBD2 (MBD2) mRNA, complete cds.",[2],−1.702
same,"mean normalized intensity: Homo sapiens tachykinin, precursor 1 (TAC1), transcript variant beta, mRNA.",[2],1.483
same,"mean normalized intensity: Homo sapiens testis expressed sequence 14 (TEX14), mRNA.",[2],−1.3824
same,"mean normalized intensity: Homo sapiens, Similar to LIM homeobox protein 8, clone IMAGE: 4839343, mRNA.",[2],−1.11
same,"mean normalized intensity: Homo sapiens, Similar to cadherin 6, type 2, K-cadherin (fetal kidney), clone MGC: 1470, mRNA, complete cds.",[2],2.134
same,"mean normalized intensity: Homo sapiens, Similar to hypothetical protein FLJ10058, clone MGC: 34305 IMAGE: 5167647, mRNA, complete cds.",[2],0.2156
same,"mean normalized intensity: Homo sapiens, Similar to hypothetical protein FLJ32001, clone MGC: 39559 IMAGE: 4828136, mRNA, complete cds.",[2],1.269
same,"mean normalized intensity: Homo sapiens, clone IMAGE: 4067166, mRNA",[2],0.277
same,"mean normalized intensity: Homo sapiens, clone IMAGE: 4828836, mRNA.",[2],−1.484
same,"mean normalized intensity: Homo sapiens, serine (or cysteine) proteinase inhibitor, clade B (ovalbumin), member 3, clone MGC: 12244, mRNA, complete cds.",[2],−1.566
same,mean normalized intensity: Human mRNA upregulated during camptothecin-induced apoptosis of U937 cells.,[2],−0.1892
same,"mean normalized intensity: Human platelet-derived growth factor alpha-receptor (PDGFRA) mRNA, exons 13-16",[2],2.905
same,mean normalized intensity: KIAA1151 protein,[2],1.009
same,mean normalized intensity: caldesmon 1,[2],5.634
same,"mean normalized intensity: nuclear receptor subfamily 1, group I, member 3",[2],−0.1968
same,mean normalized intensity: ESTs,"DE treatment in low serum + AA on MEFS, gene line r2006",−1.3
same,mean normalized intensity: ESTs,"DE treatment in low serum + AA on MEFS, gene line r2025",1.373
same,mean normalized intensity: ESTs,"DE treatment in low serum + AA on MEFS, gene line r2032",−1.566
same,mean normalized intensity: paternally expressed 3,"DE treatment in low serum + AA on MEFS, gene line r2033",−0.0118
same,mean normalized intensity: ESTs,"DE treatment in low serum + AA on MEFS, gene line r2038",1.5682
same,mean normalized intensity: paternally expressed 3,"DE treatment in low serum + AA on MEFS, gene line r2093",−3.492
same,mean normalized intensity: ESTs,"DE treatment in low serum + AA on MEFS, gene line r2134",−0.9461
same,mean normalized intensity: ESTs,"DE treatment in low serum + AA on MEFS, gene line r2148",5.334
